Test systems include ACHN renal; HL-60(TB) leukemia; SK-MEL-5 melanoma; NCI-H522 lung; HOP-62 NSCLC; UACC-257 melanoma; NCI-H23 lung; RPMI-8226 leukemia; BT-549 breast; SF-539 CNS.
Holding throughout (test): DTP human tumour cell line panel, 48 h

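Values below derive from 48-hour exposures of cells grown in 96-well plates, with endpoints linearly interpolated between the two concentrations bracketing the appropriate inhibition level. GI50: concentration for 50% inhibition of growth. TGI: total growth inhibition.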 Some results are limits rather than exact numbers.

For orientation: GI50 means the concentration that inhibits growth by half. By TGI is commonly meant the concentration giving total growth inhibition. Low values mean more potent growth arrest, high ones less potent growth arrest. As to `CCCCCCCCCCCCNC(=O)N[C@H](C(=O)N[C@H]1/C=C/OCCNC(=O)/C=C/[C@H](C(C)C)NC1=O)C(C)C`, the GI50 in the assay on ACHN renal was 51.3 µM; with HL-60(TB) leukemia, 14.7 µM; with SK-MEL-5 melanoma, 2.03 µM; in the assay with NCI-H522 lung, 0.372 µM; in the assay on HOP-62 NSCLC, 8.5 µM; with UACC-257 melanoma it was 20 µM. Moreover, the GI50 in the assay on NCI-H23 lung is 0.973 µM; in the assay with RPMI-8226 leukemia, 0.389 µM; with BT-549 breast, 2.19 µM; with SF-539 CNS it was 2.49 µM. Also, the TGI was over 100 µM in the assay with ACHN renal; 55.7 µM with HL-60(TB) leukemia; 14.8 µM in the assay on SK-MEL-5 melanoma; 5.2 µM with NCI-H522 lung; 34 µM in the assay on HOP-62 NSCLC; over 93.7 µM in the assay with UACC-257 melanoma. In addition, the concentration for total growth inhibition (TGI) with NCI-H23 lung is over 100 µM; with RPMI-8226 leukemia, 59.4 µM; with BT-549 breast, 33.6 µM; in the assay with SF-539 CNS it was 18.4 µM.
Turning to `CCN(CC)c1ccc(C=C2C(=O)NC(=S)NC2=O)cc1`, the GI50 in the assay with ACHN renal was 5.82 µM; in the assay on HL-60(TB) leukemia it was 2.6 µM; with SK-MEL-5 melanoma, 9.25 µM; with NCI-H522 lung, 1.77 µM; in the assay on HOP-62 NSCLC, 5.7 µM; with UACC-257 melanoma it was 6.46 µM. In addition, the GI50 in the assay with NCI-H23 lung was 2.98 µM; in the assay with RPMI-8226 leukemia, 2.15 µM; with BT-549 breast, 2.27 µM; in the assay with SF-539 CNS, 2.77 µM. Moreover, the TGI in the assay with ACHN renal stood at 18.5 µM; with HL-60(TB) leukemia, 7.58 µM; in the assay with SK-MEL-5 melanoma, 21.5 µM; in the assay with NCI-H522 lung, 4.29 µM; in the assay on HOP-62 NSCLC, 19.1 µM; with UACC-257 melanoma, 19.4 µM. In addition, the TGI turned out to be 9.72 µM in the assay on NCI-H23 lung, 5.49 µM in the assay on RPMI-8226 leukemia, 4.74 µM in the assay with BT-549 breast and 6.15 µM in the assay with SF-539 CNS.
In the case of `Cc1n[nH]c(C)c1-c1c(C)n[nH]c1C`, the GI50 was 1.52 µM in the assay on ACHN renal; 2.26 µM in the assay on HL-60(TB) leukemia; 1.74 µM in the assay with SK-MEL-5 melanoma; 1.66 µM in the assay on NCI-H522 lung; 2.4 µM with HOP-62 NSCLC; 2.18 µM in the assay on UACC-257 melanoma. Moreover, the GI50 in the assay with NCI-H23 lung was 1.74 µM; with RPMI-8226 leukemia, 1.87 µM; in the assay with BT-549 breast, 1.97 µM; in the assay with SF-539 CNS, 1.73 µM. Moreover, the total growth inhibition concentration (TGI) in the assay on ACHN renal is 2.88 µM; in the assay on HL-60(TB) leukemia it was 6.95 µM; in the assay with SK-MEL-5 melanoma it was 3.18 µM; in the assay on NCI-H522 lung, 3.63 µM; with HOP-62 NSCLC it was 9.11 µM; in the assay with UACC-257 melanoma, 5.68 µM. The concentration for total growth inhibition (TGI) in the assay with NCI-H23 lung is 3.47 µM; in the assay with RPMI-8226 leukemia, 7.01 µM; in the assay with BT-549 breast, 4.26 µM; in the assay with SF-539 CNS it was 3.35 µM.
Regarding `CC(C)OC(=O)OCOP(=O)(OCOC(=O)OC(C)C)C1CCCN(O)C1=O` (stereo not given), the GI50 with ACHN renal was 0.888 µM; in the assay on HL-60(TB) leukemia, 2.48 µM; in the assay on SK-MEL-5 melanoma, 1.3 µM; in the assay on NCI-H522 lung, 0.768 µM; with HOP-62 NSCLC, 2.12 µM; in the assay with UACC-257 melanoma it was 49.1 µM. Also, the GI50 was 8.47 µM in the assay on NCI-H23 lung, 0.737 µM in the assay on RPMI-8226 leukemia, 0.468 µM in the assay on BT-549 breast and 5.79 µM in the assay with SF-539 CNS. Moreover, the concentration for total growth inhibition (TGI) in the assay with ACHN renal is over 100 µM; in the assay with HL-60(TB) leukemia, over 100 µM; in the assay with SK-MEL-5 melanoma, 7.3 µM; in the assay on NCI-H522 lung it was over 100 µM; in the assay with HOP-62 NSCLC it was over 100 µM; in the assay with UACC-257 melanoma it was over 100 µM. Besides, the TGI in the assay on NCI-H23 lung is over 100 µM; with RPMI-8226 leukemia, 14.5 µM; with BT-549 breast, 11.7 µM; in the assay on SF-539 CNS it was over 100 µM.
As to `COc1cnc2c(c1)C(=O)c1c-2n(CCCN2CCNCC2)c(=O)c2cc(F)ccc12`, the GI50 in the assay on ACHN renal is 0.0553 µM; in the assay with HL-60(TB) leukemia, 0.0927 µM; in the assay on SK-MEL-5 melanoma it was 0.217 µM; in the assay on NCI-H522 lung it was 0.118 µM; in the assay on HOP-62 NSCLC, 0.0665 µM; in the assay with UACC-257 melanoma, 1.29 µM. Moreover, the 50% growth inhibitory concentration (GI50) in the assay on NCI-H23 lung was 0.233 µM; in the assay with RPMI-8226 leukemia, 0.0505 µM; with BT-549 breast, 1.25 µM; in the assay with SF-539 CNS it was 0.532 µM. For the same compound, the TGI in the assay on ACHN renal was 0.554 µM; with HL-60(TB) leukemia, 0.682 µM; in the assay with SK-MEL-5 melanoma, 1.65 µM; in the assay on NCI-H522 lung, 1.35 µM; in the assay with HOP-62 NSCLC, 0.352 µM; in the assay on UACC-257 melanoma it was 2.69 µM. Further, the TGI in the assay on NCI-H23 lung came to 1.47 µM; in the assay on RPMI-8226 leukemia, 0.458 µM; in the assay with BT-549 breast, 4.32 µM; with SF-539 CNS, 1.83 µM.
For `CN(C)c1ccc(-c2cc(-c3cccc(NS(C)(=O)=O)c3)nc(N)c2C#N)cc1`, the GI50 with ACHN renal was 0.067 µM; with HL-60(TB) leukemia it was 0.0362 µM; with SK-MEL-5 melanoma, 0.0414 µM; in the assay on NCI-H522 lung it was under 0.013 µM; with HOP-62 NSCLC, 0.045 µM; with UACC-257 melanoma it was 0.0563 µM. In addition, the GI50 in the assay with NCI-H23 lung is 0.0457 µM; with RPMI-8226 leukemia, 0.0416 µM; in the assay on BT-549 breast, 0.0645 µM; with SF-539 CNS, 0.0279 µM. For the same compound, the TGI worked out at 23.3 µM with ACHN renal; 0.411 µM with HL-60(TB) leukemia; 0.997 µM in the assay on SK-MEL-5 melanoma; 1.21 µM with NCI-H522 lung; 29.6 µM with HOP-62 NSCLC; 44.6 µM in the assay on UACC-257 melanoma. For the same compound, the total growth inhibition concentration (TGI) in the assay with NCI-H23 lung was 20.5 µM; in the assay on RPMI-8226 leukemia, 2.55 µM; in the assay on BT-549 breast it was 4.65 µM; with SF-539 CNS, 0.173 µM.
For `Cc1ccccc1C1N=C2Oc3ccccc3C=C2C(=O)N1` (stereo not given), the GI50 is 2.2 µM in the assay on ACHN renal; 2.42 µM in the assay with HL-60(TB) leukemia; 0.674 µM in the assay on SK-MEL-5 melanoma; 0.556 µM in the assay with NCI-H522 lung; 3.39 µM in the assay on HOP-62 NSCLC; over 100 µM with UACC-257 melanoma. Also, the GI50 in the assay on NCI-H23 lung was 2.5 µM; in the assay with RPMI-8226 leukemia, 62.9 µM; in the assay on BT-549 breast it was 7.32 µM; with SF-539 CNS, 1.75 µM. For the same compound, the concentration for total growth inhibition (TGI) in the assay with ACHN renal is over 100 µM; in the assay with HL-60(TB) leukemia, 17.7 µM; in the assay with SK-MEL-5 melanoma it was over 100 µM; with NCI-H522 lung, 3.32 µM; with HOP-62 NSCLC, over 100 µM; with UACC-257 melanoma it was over 100 µM. Moreover, the TGI with NCI-H23 lung was over 100 µM; with RPMI-8226 leukemia, over 100 µM; in the assay with BT-549 breast it was over 100 µM; with SF-539 CNS, 6.88 µM.
As for `CS(=O)c1cc(=O)c2ccccc2s1` (stereo not given), the total growth inhibition concentration (TGI) in the assay with ACHN renal amounted to 3.66 µM; in the assay on HL-60(TB) leukemia, 4.63 µM; with SK-MEL-5 melanoma, 22.4 µM; in the assay with NCI-H522 lung, 3.07 µM; in the assay with HOP-62 NSCLC it was 44.2 µM; in the assay with UACC-257 melanoma, 7.26 µM. In addition, the TGI in the assay on NCI-H23 lung turned out to be 15.4 µM; in the assay on RPMI-8226 leukemia, 9.08 µM; with BT-549 breast, 27.6 µM; in the assay on SF-539 CNS, 18.4 µM.

Source of the values: PubChem BioAssay (NCI).
